Test [1] relates to Human neural stem cells (hNSCs). The experiment in a line: Neuronal differentiation of human neural stem cells (TUJ-1 staining), concentration response and combination index. Type of test: cell-based. How it is done:
Mitogen-free test media with a positive control for neuronal differentiation was used along with basal media without growth factors as a negative control.
To determine the most efficacious dose and dose ratio of D-cycloserine in combination with pindolol or (S)-(−)-pindolol for future preclinical and clinical studies, dose ranging studies were conducted examining synergy for neurogenesis. […] The pindolol or (S)-(−)-pindolol concentrations were varied based on the respective ratios tested. Individual dose response curves were prepared for each concentration ratio as previously described with cells stained with TUJ-1 antibody for the detection of neuronal differentiation.
The presence of synergy was determined by use of a combination index (CI). […] The CI is a quantitative measure of the nature of drug interactions, comparing the EC50's of two compounds, when each is assayed alone, to the EC50 of each compound when assayed in combination. The combination index (CI) is equal to the following formula: […]
where C1 and C2 are the concentrations of a first and a second compound, respectively, resulting in 50% activity in neuronal differentiation when assayed in combination; and IC1 and IC2 are the concentrations of each compound resulting in 50% activity when assayed independently.

The next test deals with human mGlu3 (Homo sapiens, UniProt Q14832). Particulars: in vitro; low nanomolar range; read-out: EC50 against human mGlu3 receptor; cited from earlier work.
Sequence of human mGlu3 (Q14832 23-879): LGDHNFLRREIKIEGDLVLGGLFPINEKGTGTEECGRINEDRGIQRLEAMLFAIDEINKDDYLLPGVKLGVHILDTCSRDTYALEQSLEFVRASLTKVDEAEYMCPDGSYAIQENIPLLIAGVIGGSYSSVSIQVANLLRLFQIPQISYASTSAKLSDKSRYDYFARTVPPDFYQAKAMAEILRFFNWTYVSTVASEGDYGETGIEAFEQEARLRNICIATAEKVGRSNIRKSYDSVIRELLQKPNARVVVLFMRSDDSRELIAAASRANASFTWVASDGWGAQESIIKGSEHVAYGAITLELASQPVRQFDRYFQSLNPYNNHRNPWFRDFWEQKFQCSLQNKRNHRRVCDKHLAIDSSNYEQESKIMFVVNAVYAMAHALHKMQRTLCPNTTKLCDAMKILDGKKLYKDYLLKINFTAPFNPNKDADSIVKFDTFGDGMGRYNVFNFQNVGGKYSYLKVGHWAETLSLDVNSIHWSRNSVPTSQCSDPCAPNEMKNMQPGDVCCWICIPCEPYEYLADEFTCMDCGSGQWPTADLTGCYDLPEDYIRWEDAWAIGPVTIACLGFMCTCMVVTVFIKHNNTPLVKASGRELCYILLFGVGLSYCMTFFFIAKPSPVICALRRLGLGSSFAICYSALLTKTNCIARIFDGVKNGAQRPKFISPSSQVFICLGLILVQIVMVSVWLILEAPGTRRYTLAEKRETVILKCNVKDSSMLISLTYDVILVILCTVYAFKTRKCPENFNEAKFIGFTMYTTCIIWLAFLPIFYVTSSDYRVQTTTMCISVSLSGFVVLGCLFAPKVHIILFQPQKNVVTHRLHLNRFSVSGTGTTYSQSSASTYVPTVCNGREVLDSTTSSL
Another test deals with human mGlu2 (Homo sapiens, UniProt Q14416). Particulars: in vitro; low nanomolar range; read-out: EC50 against human mGlu2 receptor; cited from earlier work.
Sequence of human mGlu2 (Q14416 19-872): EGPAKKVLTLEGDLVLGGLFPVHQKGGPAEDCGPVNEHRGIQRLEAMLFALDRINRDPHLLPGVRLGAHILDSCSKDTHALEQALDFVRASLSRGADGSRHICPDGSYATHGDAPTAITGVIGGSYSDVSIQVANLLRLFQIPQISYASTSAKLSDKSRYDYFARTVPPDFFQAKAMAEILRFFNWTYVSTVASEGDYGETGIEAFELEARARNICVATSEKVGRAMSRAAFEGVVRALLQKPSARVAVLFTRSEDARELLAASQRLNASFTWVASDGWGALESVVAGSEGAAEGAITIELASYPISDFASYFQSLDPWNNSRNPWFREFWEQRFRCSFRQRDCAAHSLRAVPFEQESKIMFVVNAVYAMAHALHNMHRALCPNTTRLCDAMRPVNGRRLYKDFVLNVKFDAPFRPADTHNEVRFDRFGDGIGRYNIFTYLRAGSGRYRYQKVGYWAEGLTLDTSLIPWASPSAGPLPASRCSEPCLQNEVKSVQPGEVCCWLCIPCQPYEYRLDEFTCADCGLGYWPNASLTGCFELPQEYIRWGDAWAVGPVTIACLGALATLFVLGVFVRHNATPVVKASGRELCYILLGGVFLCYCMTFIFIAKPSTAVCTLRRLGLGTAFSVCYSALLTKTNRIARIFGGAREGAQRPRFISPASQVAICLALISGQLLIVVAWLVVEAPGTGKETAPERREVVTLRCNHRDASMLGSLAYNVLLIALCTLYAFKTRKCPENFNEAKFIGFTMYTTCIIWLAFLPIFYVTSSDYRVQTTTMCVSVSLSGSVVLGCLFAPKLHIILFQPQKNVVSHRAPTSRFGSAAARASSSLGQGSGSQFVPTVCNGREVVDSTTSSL
The target in the next test is mGluR3 (Homo sapiens, UniProt Q14832). Particulars: read-out: IC50 against mGluR3; cited from earlier work.
Sequence of mGluR3 (Q14832 23-879): as the sequence (Q14832 23-879) above
In another test the target is mGluR2 (Homo sapiens, UniProt Q14416). Particulars: read-out: IC50 against mGluR2; cited from earlier work.
Sequence of mGluR2 (Q14416 19-872): as the sequence (Q14416 19-872) above
Test [2] has as its system Group I or Group III receptors. The note with it: at sub-mM concentrations; cited from earlier work.
Test [3] deals with KA, AMPA, and NMDA iGlu receptors. The note with it: cited from earlier work.
Where [4] appears, read: Homo sapiens, Neural stem cell, agent run independently, % of neuronal positive control, basal media subtracted, figure legends, read-out: EC50 when used alone, neuronal differentiation.

The values below come from patent US20100216805A1, “MODULATION OF NEUROGENESIS USING D-CYCLOSERINE COMBINATIONS” (BrainCells, Inc., priority 2009, published 2010).

Molecules are shown by their SMILES. “And” between values parts separate entries of the source, which are not always exact repeats. Identical values can stand only once. Like-named read-outs stand apart in the source and are kept apart here.

In the case of `CC(C)NC[C@H](O)COc1cccc2[nH]ccc12` [(S)-(−)-Pindolol], the EC50 (as a rule, the concentration at which the effect is half-maximal) in test [1] (Table 2, (S)-(−)-pindolol alone, run with the ratio of that row, read-out: Solo EC50's (S)-(−)-Pindolol) was 2.8 µM and 1.82 µM and 1.78 µM; in test [1] (agent run independently, % of neuronal positive control, basal media subtracted, figure legends, read-out: EC50 when used alone, neuronal differentiation), 1.8 µM.

Consider `CC(CCc1ccccc1)NCC(O)c1ccc(O)c(C(N)=O)c1` (centres unmarked) [labetalol], for which the EC50 in test [1] (setting [4]) came to 5.5 µM.

`N[C@@]1(C(=O)O)CO[C@H]2[C@H](C(=O)O)[C@H]21` [LY379268, (−)-2-Oxa-4-aminobicyclohexane-4,6-dicarboxylic acid]: the EC50 at human mGlu3 and on human mGlu2 was under 0.01 µM each time.

As to `NC(=O)C[S+]([O-])C(c1ccccc1)c1ccccc1` (centres unmarked) [modafinil], in test [1] (Homo sapiens, Neural stem cell, read-out: EC50 when used alone, neuronal differentiation), the EC50 amounted to 11 µM.

As for `CCC(=O)c1c(O)cc(O)cc1O` [flopropione], in test [1] (setting [4]), the EC50 worked out at 16.6 µM.

For `N[C@@H]1CONC1=O` [D-cycloserine, (4R)-4-amino-1,2-oxazolidin-3-one], the EC50 in test [1] (Homo sapiens, Neural stem cell, Table 1, D-cycloserine alone, run with the ratio of that row, read-out: Solo EC50's D-cycloserine) was 7.91 µM; in test [1] (Homo sapiens, Neural stem cell, Table 2, D-cycloserine alone, run with the ratio of that row, read-out: Solo EC50's D-cycloserine), 5.62 µM; in test [1] (Table 1, D-cycloserine alone, run with the ratio of that row, read-out: Solo EC50's D-cycloserine), 8.48 µM and 7.41 µM; in test [1] (Table 2, D-cycloserine alone, run with the ratio of that row, read-out: Solo EC50's D-cycloserine), 8.48 µM.

As to `COCCOC(=O)C1=C(C)NC(C)=C(C(=O)OC(C)C)C1c1cccc([N+](=O)[O-])c1` (centres unmarked) [nimodipine], in test [1] (setting [4]), the half-maximal effective concentration (EC50) was found to be 100 µM.

In the case of `CC1(C)O[C@@H]2[C@@H](CO[C@@]3(COS(N)(=O)=O)OC(C)(C)O[C@@H]23)O1` [topiramate], the EC50 in test [1] (setting [4]) came out at 7.1 µM.

For `Nc1nc2ncc(CNc3ccc(C(=O)N[C@@H](CCC(=O)O)C(=O)O)cc3)nc2c(=O)[nH]1` [folic acid], the EC50 in test [1] (setting [4]) was determined as 1.09 µM.

With `CC(=O)N[C@@H](CS)C(=O)O` [N-acetyl-L-cysteine], the EC50 in test [1] (setting [4]) stood at 114 µM.

Consider `CC(C)(C)NCC(O)COc1cccc2c1CC(O)C(O)C2` (centres unmarked) [nadolol], for which the EC50 in test [1] (setting [4]) was determined as 6.7 µM.

For the compound `NC1(C(=O)O)CCc2cc(P(=O)(O)O)ccc21` (racemic) [APICA, (RS)-1-amino-5-phosphonoindan-1-carboxylic acid], the IC50 at mGluR3 and at mGluR2 was about 30 µM in each case. In addition, the “activity against Group I or Group III receptors” value in test [2] was “no appreciable activity”.

Turning to `N[C@](CC1c2ccccc2Oc2ccccc21)(C(=O)O)[C@H]1C[C@@H]1C(=O)O` [LY341495, (2S)-2-amino-2-(1S,2S-2-carboxycycloprop-1-yl)-3-(xanth-9-yl) propanoic acid], in test [3], the “activity against KA, AMPA, and NMDA iGlu receptors” value was “substantially inactive”.

As for `CC(C)NCC(O)COc1cccc2[nH]ccc12` (centres unmarked) [Pindolol], the EC50 is 1.43 µM in test [1] (Homo sapiens, Neural stem cell, Table 1, pindolol alone, run with the ratio of that row, read-out: Solo EC50's Pindolol); 1.4 µM in test [1] (setting [4]); 1.32 µM and 1.98 µM and 1.65 µM in test [1] (Table 1, pindolol alone, run with the ratio of that row, read-out: Solo EC50's Pindolol).
